The NIST ThermoML archive (doi:10.1021/je500431h)

Settings: 101 kPa, Liquid; for electrical conductivity: conductivity meter LF 340 and a standard conductivity cell TetraCon; for mass density: Pycnometric method

C=CCn1cc[n+](CCOC)c1.O=S(=O)([N-]S(=O)(=O)C(F)(F)F)C(F)(F)F
Settings | electrical conductivity [S/m] | mass density [kg/m3] | viscosity [mPa·s]
308.7 K | 0.546 | – | –
309 K | – | 1437 | 23.7
313.3 K | 0.627 | – | –
314 K | – | 1432.3 | 20.3
317 K | – | 1429.6 | 17.8
318.1 K | 0.72 | – | –
323.3 K | 0.828 | – | –
323.5 K | – | 1423.5 | 14.6
327.9 K | 0.935 | – | –
328 K | – | 1419.4 | 13.1
332.9 K | 1.06 | – | –
334 K | – | 1413.9 | 11.2
337.6 K | 1.18 | – | –
338.5 K | – | 1409.9 | 10
343 K | 1.33 | – | –
344 K | – | 1404.9 | 8.8
348 K | – | 1401.3 | 8.2
348.1 K | 1.48 | – | –
352 K | 1.6 | – | –
354.2 K | – | 1395.8 | 7
